The supplement of paper PMC11424490

What was measured:
Assay in all cases: combination cScore with sotorasib (Bliss gap around IC50) (%PoC); higher = stronger additive effect
NCI-H358 = tested on: NCI-H358
In short: (§1)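 NCI-H2122, NCI-H358 and SW837 cells (500 or 800 per well, 384-well plates) were dosed in concentration matrices after 24 h and grown 72 h, or 144 h for SW837. CellTiter-Glo luminescence was normalised to vehicle wells as percent of control and fitted with four-parameter curves. The score averages the Bliss-independence gap (expected minus measured viability) over a field around both monotherapy IC50s, or at the top concentrations when no IC50 was reached.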

SW837 = tested on: SW837
In short: as §1

NCI-H2122 = tested on: NCI-H2122
In short: as §1

**Q.** With `COC(=O)[C@]12CCC(C)(C)C[C@H]1[C@H]1C(=O)C=C3[C@@]4(C)C=C(C#N)C(=O)C(C)(C)[C@@H]4CC[C@@]3(C)[C@]1(C)CC2` [Bardoxolone methyl] + C=CC(=O)N1CCN(c2nc(=O)n(-c3c(C)ccnc3C(C)C)c3nc(-c4c(O)cccc4F)c(F)cc23)[C@@H](C)C1 [sotorasib] as the compound, how does the “combination cScore with sotorasib” value (NCI-H358) read?
**A.** -1.43

**Q.** And the “combination cScore with sotorasib” value (SW837)?
**A.** 3

**Q.** And the “combination cScore with sotorasib” value (NCI-H2122)?
**A.** 13

**Q.** `O=C(/C=C/c1cccc(S(=O)(=O)Nc2ccccc2)c1)NO` [Belinostat] + C=CC(=O)N1CCN(c2nc(=O)n(-c3c(C)ccnc3C(C)C)c3nc(-c4c(O)cccc4F)c(F)cc23)[C@@H](C)C1 [sotorasib] was tested. Which “combination cScore with sotorasib” value (NCI-H358) did it give?
**A.** -2.69

**Q.** And the “combination cScore with sotorasib” value (SW837)?
**A.** 9.09

**Q.** And the “combination cScore with sotorasib” value (NCI-H2122)?
**A.** 10.8

**Q.** `Cc1c(N)nc([C@H](CC(N)=O)NC[C@H](N)C(N)=O)nc1C(=O)N[C@H](C(=O)N[C@H](C)[C@@H](O)[C@H](C)C(=O)N[C@H](C(=O)NCCc1nc(-c2nc(C(=O)NCCC[S+](C)C)cs2)cs1)[C@@H](C)O)[C@@H](OC1OC(CO)C(O)C(O)C1OC1OC(CO)C(O)C(OC(N)=O)C1O)c1cnc[nH]1` (some centres undefined) [Bleomycin] + C=CC(=O)N1CCN(c2nc(=O)n(-c3c(C)ccnc3C(C)C)c3nc(-c4c(O)cccc4F)c(F)cc23)[C@@H](C)C1 [sotorasib] was tested. Which “combination cScore with sotorasib” value (NCI-H358) did it give?
**A.** -4.36

**Q.** And the “combination cScore with sotorasib” value (SW837)?
**A.** 11.1

**Q.** And the “combination cScore with sotorasib” value (NCI-H2122)?
**A.** 19.9

**Q.** Which “combination cScore with sotorasib” value (NCI-H358) does the source give for `CC(C)C[C@H](NC(=O)[C@H](Cc1ccccc1)NC(=O)c1cnccn1)B(O)O` [Bortezomib] + C=CC(=O)N1CCN(c2nc(=O)n(-c3c(C)ccnc3C(C)C)c3nc(-c4c(O)cccc4F)c(F)cc23)[C@@H](C)C1 [sotorasib] here?
**A.** 0.21

**Q.** What about the “combination cScore with sotorasib” value (SW837) of the same compound?
**A.** -5.84

**Q.** And the “combination cScore with sotorasib” value (NCI-H2122)?
**A.** 5.05

**Q.** What does the source list for `COc1cc(Nc2c(C#N)cnc3cc(OCCCN4CCN(C)CC4)c(OC)cc23)c(Cl)cc1Cl` [Bosutinib] + C=CC(=O)N1CCN(c2nc(=O)n(-c3c(C)ccnc3C(C)C)c3nc(-c4c(O)cccc4F)c(F)cc23)[C@@H](C)C1 [sotorasib]?
**A.** combination cScore with sotorasib (NCI-H358): 5.71; combination cScore with sotorasib (SW837): 11.2; combination cScore with sotorasib (NCI-H2122): 8.9

**Q.** For `CC[C@H](Nc1ncnc2[nH]cnc12)c1nc2cccc(F)c2c(=O)n1-c1ccccc1` [Cal-101] + C=CC(=O)N1CCN(c2nc(=O)n(-c3c(C)ccnc3C(C)C)c3nc(-c4c(O)cccc4F)c(F)cc23)[C@@H](C)C1 [sotorasib], which “combination cScore with sotorasib” value (NCI-H358) is on record?
**A.** 3.19

**Q.** What about the “combination cScore with sotorasib” value (SW837) of the same compound?
**A.** 7.76

**Q.** And the “combination cScore with sotorasib” value (NCI-H2122)?
**A.** 29.1

**Q.** How did the “combination cScore with sotorasib” value (NCI-H358) turn out when `O=P1(N(CCCl)CCCl)NCCCO1` (centres undefined) [Cyclophosphamide] + C=CC(=O)N1CCN(c2nc(=O)n(-c3c(C)ccnc3C(C)C)c3nc(-c4c(O)cccc4F)c(F)cc23)[C@@H](C)C1 [sotorasib] was run?
**A.** 4.33

**Q.** What about the “combination cScore with sotorasib” value (SW837) of the same compound?
**A.** -10.5

**Q.** What about the “combination cScore with sotorasib” value (NCI-H2122) of the same compound?
**A.** -0.02

**Q.** Which “combination cScore with sotorasib” value (NCI-H358) does the source give for `Cc1nc(Nc2ncc(C(=O)Nc3c(C)cccc3Cl)s2)cc(N2CCN(CCO)CC2)n1` [Dasatinib] + C=CC(=O)N1CCN(c2nc(=O)n(-c3c(C)ccnc3C(C)C)c3nc(-c4c(O)cccc4F)c(F)cc23)[C@@H](C)C1 [sotorasib] here?
**A.** 9.3

**Q.** And the “combination cScore with sotorasib” value (SW837)?
**A.** 17.9

**Q.** And the “combination cScore with sotorasib” value (NCI-H2122)?
**A.** 30.8

**Q.** `COc1cccc2c1C(=O)c1c(O)c3c(c(O)c1C2=O)C[C@@](O)(C(C)=O)C[C@@H]3O[C@H]1C[C@H](N)[C@H](O)[C@H](C)O1` [Daunorubicin] + C=CC(=O)N1CCN(c2nc(=O)n(-c3c(C)ccnc3C(C)C)c3nc(-c4c(O)cccc4F)c(F)cc23)[C@@H](C)C1 [sotorasib] was tested. Which “combination cScore with sotorasib” value (NCI-H358) did it give?
**A.** 2.01

**Q.** And the “combination cScore with sotorasib” value (SW837)?
**A.** 5.95

**Q.** And the “combination cScore with sotorasib” value (NCI-H2122)?
**A.** 18.1

**Q.** For `C[C@H](Nc1ncnc2nc[nH]c12)c1cc2cccc(Cl)c2c(=O)n1-c1ccccc1` [Duvelisib] + C=CC(=O)N1CCN(c2nc(=O)n(-c3c(C)ccnc3C(C)C)c3nc(-c4c(O)cccc4F)c(F)cc23)[C@@H](C)C1 [sotorasib], which “combination cScore with sotorasib” value (NCI-H358) is on record?
**A.** 4.86

**Q.** And the “combination cScore with sotorasib” value (SW837)?
**A.** 18.6

**Q.** What about the “combination cScore with sotorasib” value (NCI-H2122) of the same compound?
**A.** 14.2

**Q.** With `C#Cc1cccc(Nc2ncnc3cc(OCCOC)c(OCCOC)cc23)c1` [Erlotinib] + C=CC(=O)N1CCN(c2nc(=O)n(-c3c(C)ccnc3C(C)C)c3nc(-c4c(O)cccc4F)c(F)cc23)[C@@H](C)C1 [sotorasib] as the compound, how does the “combination cScore with sotorasib” value (NCI-H358) read?
**A.** 10.2

**Q.** And the “combination cScore with sotorasib” value (SW837)?
**A.** 23

**Q.** And the “combination cScore with sotorasib” value (NCI-H2122)?
**A.** 27.4

**Q.** What does the source list for `COc1cc(Nc2ncc(F)c(Nc3ccc4c(n3)N(COP(=O)(O)O)C(=O)C(C)(C)O4)n2)cc(OC)c1OC` [Fostamatinib] + C=CC(=O)N1CCN(c2nc(=O)n(-c3c(C)ccnc3C(C)C)c3nc(-c4c(O)cccc4F)c(F)cc23)[C@@H](C)C1 [sotorasib]?
**A.** combination cScore with sotorasib (NCI-H358): 8.55; combination cScore with sotorasib (SW837): 23.7; combination cScore with sotorasib (NCI-H2122): 23.3

**Q.** Which “combination cScore with sotorasib” value (NCI-H358) does the source give for `C[C@H](Nc1ccc2c(c1)OCCn1cc(N3C(=O)OC[C@H]3C(F)F)nc1-2)C(N)=O` [GDC-0077] + C=CC(=O)N1CCN(c2nc(=O)n(-c3c(C)ccnc3C(C)C)c3nc(-c4c(O)cccc4F)c(F)cc23)[C@@H](C)C1 [sotorasib] here?
**A.** 3.7

**Q.** And the “combination cScore with sotorasib” value (SW837)?
**A.** 18.3

**Q.** What about the “combination cScore with sotorasib” value (NCI-H2122) of the same compound?
**A.** 25.4

**Q.** How did the “combination cScore with sotorasib” value (NCI-H358) turn out when `CCCc1cc(C)[nH]c(=O)c1CNC(=O)c1cc(-c2ccnc(N3CCN(C)CC3)c2)cc2c1cnn2C(C)C` [GSK343] + C=CC(=O)N1CCN(c2nc(=O)n(-c3c(C)ccnc3C(C)C)c3nc(-c4c(O)cccc4F)c(F)cc23)[C@@H](C)C1 [sotorasib] was run?
**A.** 2.88

**Q.** What about the “combination cScore with sotorasib” value (SW837) of the same compound?
**A.** 9.75

**Q.** And the “combination cScore with sotorasib” value (NCI-H2122)?
**A.** 8.7

**Q.** For `COc1cc2ncnc(Nc3ccc(F)c(Cl)c3)c2cc1OCCCN1CCOCC1` [Gefitinib] + C=CC(=O)N1CCN(c2nc(=O)n(-c3c(C)ccnc3C(C)C)c3nc(-c4c(O)cccc4F)c(F)cc23)[C@@H](C)C1 [sotorasib], which “combination cScore with sotorasib” value (NCI-H358) is on record?
**A.** 8.62

**Q.** What about the “combination cScore with sotorasib” value (SW837) of the same compound?
**A.** 23.2

**Q.** And the “combination cScore with sotorasib” value (NCI-H2122)?
**A.** 26.4

**Q.** Which “combination cScore with sotorasib” value (NCI-H358) does the source give for `CCS(=O)(=O)Nc1ccc2c(c1)/C(=C(/Nc1ccc(CN3CCCCC3)cc1)c1ccccc1)C(=O)N2` [Hesperadin] + C=CC(=O)N1CCN(c2nc(=O)n(-c3c(C)ccnc3C(C)C)c3nc(-c4c(O)cccc4F)c(F)cc23)[C@@H](C)C1 [sotorasib] here?
**A.** 4.25

**Q.** And the “combination cScore with sotorasib” value (SW837)?
**A.** 5.4

**Q.** And the “combination cScore with sotorasib” value (NCI-H2122)?
**A.** 12.3

**Q.** How did the “combination cScore with sotorasib” value (NCI-H358) turn out when `O=C(O)CNC(=O)c1c(O)c2ccccc2n(Cc2ccccc2)c1=O` [IOX2] + C=CC(=O)N1CCN(c2nc(=O)n(-c3c(C)ccnc3C(C)C)c3nc(-c4c(O)cccc4F)c(F)cc23)[C@@H](C)C1 [sotorasib] was run?
**A.** 0.66

**Q.** What about the “combination cScore with sotorasib” value (SW837) of the same compound?
**A.** 17.9

**Q.** What about the “combination cScore with sotorasib” value (NCI-H2122) of the same compound?
**A.** 21.3

**Q.** For `C[C@H](NC(=O)c1c(N)nn2cccnc12)c1cc2cccc(C#Cc3cnn(C)c3)c2c(=O)n1-c1ccccc1` [IPI-549] + C=CC(=O)N1CCN(c2nc(=O)n(-c3c(C)ccnc3C(C)C)c3nc(-c4c(O)cccc4F)c(F)cc23)[C@@H](C)C1 [sotorasib], which “combination cScore with sotorasib” value (NCI-H358) is on record?
**A.** 2.47

**Q.** What about the “combination cScore with sotorasib” value (SW837) of the same compound?
**A.** 4.45

**Q.** What about the “combination cScore with sotorasib” value (NCI-H2122) of the same compound?
**A.** 15.1

**Q.** How did the “combination cScore with sotorasib” value (NCI-H358) turn out when `C=CC(=O)N1CCC[C@@H](n2nc(-c3ccc(Oc4ccccc4)cc3)c3c(N)ncnc32)C1` [Ibrutinib] + C=CC(=O)N1CCN(c2nc(=O)n(-c3c(C)ccnc3C(C)C)c3nc(-c4c(O)cccc4F)c(F)cc23)[C@@H](C)C1 [sotorasib] was run?
**A.** 14.4

**Q.** What about the “combination cScore with sotorasib” value (SW837) of the same compound?
**A.** 13.3

**Q.** And the “combination cScore with sotorasib” value (NCI-H2122)?
**A.** 27.9

**Q.** Which results are given for `CS(=O)(=O)CCNCc1ccc(-c2ccc3ncnc(Nc4ccc(OCc5cccc(F)c5)c(Cl)c4)c3c2)o1` [Lapatinib] + C=CC(=O)N1CCN(c2nc(=O)n(-c3c(C)ccnc3C(C)C)c3nc(-c4c(O)cccc4F)c(F)cc23)[C@@H](C)C1 [sotorasib]?
**A.** combination cScore with sotorasib (NCI-H358): 12.8; combination cScore with sotorasib (SW837): 15.4; combination cScore with sotorasib (NCI-H2122): 28.9

**Q.** Which results are given for `Cc1c(CN2CCC(Nc3ncnc4sc(CC(F)(F)F)cc34)CC2)ccc2[nH]c(C#N)cc12` [MI-463] + C=CC(=O)N1CCN(c2nc(=O)n(-c3c(C)ccnc3C(C)C)c3nc(-c4c(O)cccc4F)c(F)cc23)[C@@H](C)C1 [sotorasib]?
**A.** combination cScore with sotorasib (NCI-H358): 2.97; combination cScore with sotorasib (SW837): 12.3; combination cScore with sotorasib (NCI-H2122): 10.2

**Q.** With `NC1(c2ccc(-c3nc4ccn5c(=O)[nH]nc5c4cc3-c3ccccc3)cc2)CCC1` [MK-2206] + C=CC(=O)N1CCN(c2nc(=O)n(-c3c(C)ccnc3C(C)C)c3nc(-c4c(O)cccc4F)c(F)cc23)[C@@H](C)C1 [sotorasib] as the compound, how does the “combination cScore with sotorasib” value (NCI-H358) read?
**A.** 1.28

**Q.** And the “combination cScore with sotorasib” value (SW837)?
**A.** 18

**Q.** And the “combination cScore with sotorasib” value (NCI-H2122)?
**A.** 15.5

**Q.** For `CC(C)n1nc(-c2ccc3oc(N)nc3c2)c2c(N)ncnc21` [MLN-0128] + C=CC(=O)N1CCN(c2nc(=O)n(-c3c(C)ccnc3C(C)C)c3nc(-c4c(O)cccc4F)c(F)cc23)[C@@H](C)C1 [sotorasib], which “combination cScore with sotorasib” value (NCI-H358) is on record?
**A.** 10.3

**Q.** What about the “combination cScore with sotorasib” value (SW837) of the same compound?
**A.** 15.9

**Q.** And the “combination cScore with sotorasib” value (NCI-H2122)?
**A.** 6.3
